Assay results from patent US11186577B2, “Vasopressin receptor antagonists and products and methods related thereto” (BlackThorn Therapeutics, Inc., priority 2017, dated 2021).
pIC50: −log10 of the molar value.

What was measured:
[1] = target: human Arginine Vasopressin Receptor 1b (AVPR1b) (Homo sapiens (Human), UniProt P47901); assay: Vasopressin V1B receptor antagonist assay (AVP-evoked calcium, FLIPR, CHO-AVPR1b cells); type: cell-based
Method in brief: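 CHO cells expressing human AVPR1b, loaded with Calcium-6 dye, were preincubated with compound for 15 min at 37 °C, then challenged with AVP at its daily-determined EC80. Calcium fluorescence was followed for 3 min on FLIPR; 10-point, 1:3 concentration curves gave antagonism as reduced AVP response.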

[2] = target: human Oxytocin Receptor (hOTR) (Homo sapiens (Human), UniProt P30559); assay: Oxytocin receptor antagonist assay (oxytocin-evoked calcium, FLIPR, CHEM-1-hOTR cells); type: cell-based; details: read-out: OT IC50
Method in brief: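 Oxytocin-evoked intracellular calcium rise measured by FLIPR^TETRA fluorescence (Calcium-6 dye, 3 min read) in CHEM-1-hOTR cells. Test compounds, 10-point 1:3 dilutions, were added 15 min at 37 °C before an EC80 oxytocin challenge (EC80 set each assay day); buffer HBSS with 20 mM HEPES.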

Chain of human Oxytocin Receptor (hOTR) (P30559 whole entry): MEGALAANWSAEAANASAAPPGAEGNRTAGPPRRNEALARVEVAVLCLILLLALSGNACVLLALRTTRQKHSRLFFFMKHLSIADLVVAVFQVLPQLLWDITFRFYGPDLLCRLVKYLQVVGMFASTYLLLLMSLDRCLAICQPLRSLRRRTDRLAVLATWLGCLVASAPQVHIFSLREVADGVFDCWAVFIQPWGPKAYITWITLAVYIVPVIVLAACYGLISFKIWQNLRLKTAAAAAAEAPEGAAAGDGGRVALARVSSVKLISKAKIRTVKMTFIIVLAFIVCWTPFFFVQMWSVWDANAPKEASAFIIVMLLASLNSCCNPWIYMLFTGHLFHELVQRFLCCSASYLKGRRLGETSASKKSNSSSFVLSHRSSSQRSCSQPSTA
Chain of human Arginine Vasopressin Receptor 1b (AVPR1b) (P47901 whole entry): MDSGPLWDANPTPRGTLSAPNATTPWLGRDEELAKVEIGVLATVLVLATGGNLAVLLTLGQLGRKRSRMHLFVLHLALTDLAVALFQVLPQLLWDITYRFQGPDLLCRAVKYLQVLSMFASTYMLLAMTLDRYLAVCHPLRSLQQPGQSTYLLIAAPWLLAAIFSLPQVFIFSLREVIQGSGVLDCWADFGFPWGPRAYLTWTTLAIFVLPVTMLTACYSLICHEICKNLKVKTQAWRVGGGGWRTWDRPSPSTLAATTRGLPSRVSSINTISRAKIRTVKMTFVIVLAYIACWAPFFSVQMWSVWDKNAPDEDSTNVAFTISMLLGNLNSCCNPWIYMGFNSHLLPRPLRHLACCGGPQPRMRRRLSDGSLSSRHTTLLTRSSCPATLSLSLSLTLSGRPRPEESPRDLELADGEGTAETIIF

Structure (SMILES) | pIC50 [1] | pIC50 [2]
CC(CF)N1Cc2cc(Cl)ccc2-n2c(nnc2C2CC3(C2)CN(c2ccccn2)C3)C1 (stereo not shown) [compound 58] | < 6.00 | < 6.00
COC(=O)N1Cc2cc(Cl)ccc2-n2c(C3CC4(C3)CN(c3cccc(C)n3)C4)nnc2C1C (stereo not shown) [compound 180] | < 6.00 | 6.30 to 7.00
